According to patent publication US6905016B2, “Packaging system for transdermal drug delivery systems” (Noven Pharmaceuticals, Inc., priority 2000, dated 2005):
Entries after “also recorded” stand apart in the source; their conditions may differ.

Legend:
[1] = prescribed for morning sickness during pregnancy; cited from earlier work
beta-adrenergic = settings: L-form versus D-enantiomer; cited from earlier work
[2] = Degradation of methylphenidate in presence of moisture or packaging materials (observation)

O=C1CCC(N2C(=O)c3ccccc3C2=O)C(=O)N1 (single isomer, unassigned) [L-enantiomer of thalidomide, thalidomide]
safety/effect of enantiomer in pregnancy [1]: potent teratogen

CC(C)NC[C@H](O)COc1cccc2ccccc12 [L-form of propranolol, propranolol]
potency relative to the D-enantiomer (beta-adrenergic): 100 times

O=C1CCC(N2C(=O)c3ccccc3C2=O)C(=O)N1 (single isomer, unassigned) [D-enantiomer of thalidomide, thalidomide]
safety/effect of enantiomer in pregnancy [1]: safe and effective sedative

COC(=O)C(c1ccccc1)C1CCCCN1 (centres unmarked) [methylphenidate]
stability in the presence of packaging materials ([2]; certain types of packaging materials used for transdermal systems): unstable
degradation in the presence of moisture ([2]; exposure to moisture): form ritalinic acid by hydrolysis; also recorded: formation of the erythro-enantiomers
